Consider 2 compounds from article PMC8424644, “Thermodynamic Stability and Speciation of Ga(III) and Zr(IV) Complexes with High-Denticity Hydroxamate Chelators” (Inorganic Chemistry, 2021).

Structures are written as SMILES. Marks after values point to notes of the source that are not given here.

The nature of the data set: Fe(III) complex stability, potentiometric titrations. The format is physicochemical. The note with it: 25 °C, I = 0.1 M NaClO4. An excerpt:
To evaluate the thermodynamic stability of Ga(III) and Zr(IV) complexes of the investigated ligands, the binding properties and speciation of Fe(III) complexes have first been determined (all the details are given in the Supporting Information). There are several reasons for this protocol. First, (i) the electron configuration of Ga(III) (d^10) and Zr(IV) (d^0) hinders the attainment of spectral information for most of the complexes. Furthermore, (ii) both metal ions are highly acidic and they are readily hydrolyzed over almost the entire pH range. In addition, (iii) the high charge to size ratio of the Zr(IV) ion implies the formation of complexes with an exceptional thermodynamic stability (already at very low pH); as a consequence, the stability constants cannot be directly determined using standard potentiometric titrations. Thus, the thermodynamic stability constants of the Fe(III)-H3L1 and Fe(III)-H4L2 systems were first determined (using a combination of potentiometric and pH-dependent UV–vis titrations), followed by Fe(III)–Ga(III) and Fe(III)–Zr(IV) metal–metal competition experiments. […]
Accordingly, the following speciation could be drawn from the spectra collected: the complexes formation starts at pH<1 involving two hydroxamate groups coordinated to Fe(III) ion, while the three hydroxamate complexes are observed over pH range 3-9. Above pH 9, the absorbance begins to […]

With `O=C1CCCN(O)C(=O)CCCNC(=O)CCCN(O)C(=O)CCCNC(=O)CCCN(O)C(=O)CCCN1` [H3L1, 1,11,21-Trihydroxy-1,6,11,16,21,26-hexaazacyclotriacontane-2,7,12,17,22,27-hexaone], the “log β [FeL]” value is 28.7(1) ^d.

For `N[C@H]1CCCCNC(=O)CCCN(O)C(=O)CCCNC(=O)CCCN(O)C(=O)CCCNC(=O)CCCN(O)C(=O)CCCNC(=O)CCCN(O)C(=O)CCCNC1=O` [H4L2, (S)-43-Amino-6,16,26,36-tetrahydroxy-1,6,11,16,21,26,31,36,41-nonaazacycloheptatetracontane-2,7,12,17,22,27,32,37,42-nonaone], the “log β [FeHL]” value is 36.82(6) ^d.
